# Experimental data: PubChem BioAssay AID1918994 (Molecular Pharmacology Branch, DTP, NCI, 2023)
# Values joined by “and” are separate entries in the source; they are usually repeats but may differ in a detail not shown here. Equal entries are not always repeated.
# Tested on: 292921-168-R-J2-PDC complex spheroid growth
# Experiment: Anticancer human tumor 292921-168-R-J2-PDC patient-derived pancreatic carcinoma cell line growth inhibition [AhR]
# Conditions: for viability, T/C: stronger effect = lower value
# Outline: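 Spheroids combined tumor cells with HUVEC endothelial cells and human MSCs as stroma. AhR antagonists were paired with standard or investigational drugs, each dosed in half-log steps down from near clinical Cmax, or from 10 microM where Cmax was unknown.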
# [1] = curve of first compound, second compound 0.1 µM
# [2] = curve of first compound, second compound 0.316 µM
# [3] = curve of first compound, second compound 1 µM
# [4] = curve of first compound, second compound 3.16 µM
# [5] = curve of first compound, second compound 10 µM
# [6] = second compound 0.1 µM, first compound 0.00316 µM
# [7] = second compound 0.1 µM, first compound 0.01 µM
# [8] = second compound 0.1 µM, first compound 0.0316 µM
# [9] = second compound 0.1 µM, first compound 0.1 µM
# [10] = second compound 0.316 µM, first compound 0.00316 µM
# [11] = second compound 0.316 µM, first compound 0.01 µM
# [12] = second compound 0.316 µM, first compound 0.0316 µM
# [13] = second compound 0.316 µM, first compound 0.1 µM
# [14] = second compound 1 µM, first compound 0.00316 µM
# [15] = second compound 1 µM, first compound 0.01 µM
# [16] = second compound 1 µM, first compound 0.0316 µM
# [17] = second compound 1 µM, first compound 0.1 µM
# [18] = second compound 3.16 µM, first compound 0.00316 µM
# [19] = second compound 3.16 µM, first compound 0.01 µM
# [20] = second compound 3.16 µM, first compound 0.0316 µM
# [21] = second compound 3.16 µM, first compound 0.1 µM
# [22] = second compound 10 µM, first compound 0.00316 µM
# [23] = second compound 10 µM, first compound 0.01 µM
# [24] = second compound 10 µM, first compound 0.0316 µM
# [25] = second compound 10 µM, first compound 0.1 µM
# 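Further: spheroids exposed to compounds for seven days after three days of growth.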
structure (smiles),measurement,setting,value
CC1COCCN1c1cc(-c2ccnn2C)c2ccnc(-c3ccn[nH]3)c2n1 (configuration not stated) + Cc1cncc(-c2nc(NCCc3c[nH]c4ccccc34)c3ncn(C(C)C)c3n2)c1,IC50,[1],48 nM
same,IC50,[2],43.4 nM
same,IC50,[3],40.8 nM
same,IC50,[4],32.1 nM
same,IC50,[5],< 3.16 nM
same,"viability, T/C",[6],87.5%
same,"viability, T/C",[7],82.6%
same,"viability, T/C",[8],60%
same,"viability, T/C",[9],31.8%
same,"viability, T/C","second compound 0.1 µM, first compound 0.316 µM",22.5%
same,"viability, T/C","second compound 0.1 µM, first compound 1 µM",18.1%
same,"viability, T/C",[10],88.3%
same,"viability, T/C",[11],78.6%
same,"viability, T/C",[12],56.8%
same,"viability, T/C",[13],32.7%
same,"viability, T/C","second compound 0.316 µM, first compound 0.316 µM",18.7%
same,"viability, T/C","second compound 0.316 µM, first compound 1 µM",17%
same,"viability, T/C",[14],74.5%
same,"viability, T/C",[15],73%
same,"viability, T/C",[16],55.2%
same,"viability, T/C",[17],30%
same,"viability, T/C","second compound 1 µM, first compound 0.316 µM",18.7%
same,"viability, T/C","second compound 1 µM, first compound 1 µM",17.1%
same,"viability, T/C",[18],60.3%
same,"viability, T/C",[19],64.1%
same,"viability, T/C",[20],49.7%
same,"viability, T/C",[21],25.4%
same,"viability, T/C","second compound 3.16 µM, first compound 0.316 µM",17.9%
same,"viability, T/C","second compound 3.16 µM, first compound 1 µM",17.9%
same,"viability, T/C",[22],41%
same,"viability, T/C",[23],48.1%
same,"viability, T/C",[24],44.9%
same,"viability, T/C",[25],33.2%
same,"viability, T/C","second compound 10 µM, first compound 0.316 µM",25.8%
same,"viability, T/C","second compound 10 µM, first compound 1 µM",22.2%
CCc1c2c(nc3ccc(O)cc13)-c1cc3c(c(=O)n1C2)COC(=O)[C@]3(O)CC + Cc1ccccc1N=Nc1ccc(NC(=O)c2ccnn2C)c(C)c1,IC50,[1],3.86 nM
same,IC50,[2],3.56 nM
same,IC50,[3],3.34 nM
same,IC50,[4],1.37 nM
same,IC50,[5],< 0.949 nM
same,"viability, T/C","second compound 0.1 µM, first compound 0.000949 µM",78.2%
same,"viability, T/C","second compound 0.1 µM, first compound 0.003 µM",58.5%
same,"viability, T/C","second compound 0.1 µM, first compound 0.00949 µM",20%
same,"viability, T/C","second compound 0.1 µM, first compound 0.03 µM",7.99%
same,"viability, T/C","second compound 0.1 µM, first compound 0.0949 µM",5.02%
same,"viability, T/C","second compound 0.1 µM, first compound 0.3 µM",2.76%
same,"viability, T/C","second compound 0.316 µM, first compound 0.000949 µM",68.3%
same,"viability, T/C","second compound 0.316 µM, first compound 0.003 µM",55.9%
same,"viability, T/C","second compound 0.316 µM, first compound 0.00949 µM",17.3%
same,"viability, T/C","second compound 0.316 µM, first compound 0.03 µM",8.17%
same,"viability, T/C","second compound 0.316 µM, first compound 0.0949 µM",3.89%
same,"viability, T/C","second compound 0.316 µM, first compound 0.3 µM",3.58%
same,"viability, T/C","second compound 1 µM, first compound 0.000949 µM",68.6%
same,"viability, T/C","second compound 1 µM, first compound 0.003 µM",53.6%
same,"viability, T/C","second compound 1 µM, first compound 0.00949 µM",18.9%
same,"viability, T/C","second compound 1 µM, first compound 0.03 µM",9.76%
same,"viability, T/C","second compound 1 µM, first compound 0.0949 µM",5.35%
same,"viability, T/C","second compound 1 µM, first compound 0.3 µM",2.94%
same,"viability, T/C","second compound 3.16 µM, first compound 0.000949 µM",54.4%
same,"viability, T/C","second compound 3.16 µM, first compound 0.003 µM",40.6%
same,"viability, T/C","second compound 3.16 µM, first compound 0.00949 µM",16%
same,"viability, T/C","second compound 3.16 µM, first compound 0.03 µM",9.67%
same,"viability, T/C","second compound 3.16 µM, first compound 0.0949 µM",5.09%
same,"viability, T/C","second compound 3.16 µM, first compound 0.3 µM",3.01%
same,"viability, T/C","second compound 10 µM, first compound 0.000949 µM",47.4%
same,"viability, T/C","second compound 10 µM, first compound 0.003 µM",40.9%
same,"viability, T/C","second compound 10 µM, first compound 0.00949 µM",17.5%
same,"viability, T/C","second compound 10 µM, first compound 0.03 µM",10.8%
same,"viability, T/C","second compound 10 µM, first compound 0.0949 µM",5.21%
same,"viability, T/C","second compound 10 µM, first compound 0.3 µM",3.01%
CCc1c2c(nc3ccc(O)cc13)-c1cc3c(c(=O)n1C2)COC(=O)[C@]3(O)CC,"viability, T/C",compound 0.000949 µM,72.1% and 79.3% and 54.5%
same,"viability, T/C",compound 0.003 µM,53.6% and 63.4% and 47.4%
same,"viability, T/C",compound 0.00949 µM,25.5% and 20.2% and 23.6%
same,"viability, T/C",compound 0.03 µM,12.2% and 9.77% and 13%
same,"viability, T/C",compound 0.0949 µM,6.69% and 4.55% and 7%
same,"viability, T/C",compound 0.3 µM,3.7% and 2.95% and 3.56%
same,IC50,curve of compound,3.42 nM and 4.29 nM and 1.79 nM
Cn1ncnc1C1c2n[nH]c(=O)c3cc(F)cc(c23)NC1c1ccc(F)cc1 (configuration not stated) + CC(CO)NC(=O)c1cc(-c2ccc(Cl)cc2)nn(-c2cnn(C)c2)c1=O,IC50,[1],> 100 nM
same,IC50,[2],> 100 nM
same,IC50,[3],> 100 nM
same,IC50,[4],> 100 nM
same,IC50,[5],> 100 nM
same,"viability, T/C","second compound 0.1 µM, first compound 0.000316 µM",103%
same,"viability, T/C","second compound 0.1 µM, first compound 0.001 µM",109%
same,"viability, T/C",[6],100%
same,"viability, T/C",[7],99.8%
same,"viability, T/C",[8],94.3%
same,"viability, T/C",[9],87.6%
same,"viability, T/C","second compound 0.316 µM, first compound 0.000316 µM",109%
same,"viability, T/C","second compound 0.316 µM, first compound 0.001 µM",97.5%
same,"viability, T/C",[10],104%
same,"viability, T/C",[11],96%
same,"viability, T/C",[12],96.5%
same,"viability, T/C",[13],79.9%
same,"viability, T/C","second compound 1 µM, first compound 0.000316 µM",108%
same,"viability, T/C","second compound 1 µM, first compound 0.001 µM",106%
same,"viability, T/C",[14],99.6%
same,"viability, T/C",[15],89.9%
same,"viability, T/C",[16],86.3%
same,"viability, T/C",[17],94.3%
same,"viability, T/C","second compound 3.16 µM, first compound 0.000316 µM",92.2%
same,"viability, T/C","second compound 3.16 µM, first compound 0.001 µM",99.2%
same,"viability, T/C",[18],92.6%
same,"viability, T/C",[19],92.9%
same,"viability, T/C",[20],77.1%
same,"viability, T/C",[21],77.4%
same,"viability, T/C","second compound 10 µM, first compound 0.000316 µM",68.5%
same,"viability, T/C","second compound 10 µM, first compound 0.001 µM",73.3%
same,"viability, T/C",[22],75.8%
same,"viability, T/C",[23],73%
same,"viability, T/C",[24],67%
same,"viability, T/C",[25],64.6%
